Earlier results on 1 substance are cited in US4771122A, “Novel cyclosporins” (Sandoz Ltd., priority 1985, dated 1988).

For the series the following is noted: reported in literature.

As to [(D)Pro]^3 -Cyclosporine, the immunosuppressive activity entry was “substantially lacking in immunosuppressive activity”.
